Data reported in US11370769B2, “TRPC5 inhibitors and methods of using same” (BOARD OF REGENTS OF THE UNIVERSITY OF NEBRASKA, priority 2017, dated 2022).

Biological target: T1, TRPC6 (Homo sapiens, UniProt Q9Y210)
T1 construct: expressed in transfected cells; host or cells: HEK293
T1 sequence (Q9Y210 1-931): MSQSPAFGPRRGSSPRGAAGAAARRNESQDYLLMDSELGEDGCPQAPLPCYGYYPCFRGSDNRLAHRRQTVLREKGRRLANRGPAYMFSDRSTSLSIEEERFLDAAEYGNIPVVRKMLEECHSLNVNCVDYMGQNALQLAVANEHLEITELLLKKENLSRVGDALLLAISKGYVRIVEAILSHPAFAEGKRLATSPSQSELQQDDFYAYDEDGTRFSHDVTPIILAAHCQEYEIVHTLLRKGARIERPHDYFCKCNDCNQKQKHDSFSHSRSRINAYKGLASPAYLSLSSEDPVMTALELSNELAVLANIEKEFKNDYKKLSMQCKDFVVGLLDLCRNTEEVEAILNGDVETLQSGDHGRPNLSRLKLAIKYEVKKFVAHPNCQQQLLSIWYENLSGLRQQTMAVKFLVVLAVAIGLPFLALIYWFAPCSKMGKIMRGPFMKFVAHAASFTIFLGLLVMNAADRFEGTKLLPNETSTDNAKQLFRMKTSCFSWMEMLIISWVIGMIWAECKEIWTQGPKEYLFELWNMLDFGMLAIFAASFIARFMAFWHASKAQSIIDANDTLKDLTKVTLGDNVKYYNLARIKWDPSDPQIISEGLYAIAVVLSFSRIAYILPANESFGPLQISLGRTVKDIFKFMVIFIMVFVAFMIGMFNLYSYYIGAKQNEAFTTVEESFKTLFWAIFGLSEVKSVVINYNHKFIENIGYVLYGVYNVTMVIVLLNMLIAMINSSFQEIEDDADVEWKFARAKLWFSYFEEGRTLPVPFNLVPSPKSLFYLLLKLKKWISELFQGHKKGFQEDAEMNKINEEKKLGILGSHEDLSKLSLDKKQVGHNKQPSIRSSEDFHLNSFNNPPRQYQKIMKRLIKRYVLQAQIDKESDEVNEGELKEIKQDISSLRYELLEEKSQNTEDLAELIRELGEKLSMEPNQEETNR
Experiment: HEK293 whole-cell patch clamp recording, TRPC6 inhibition assay
Format: cell-based
Conditions: 30 μM, HEK cells expressing TRPC6, OAG 30 μM
Method: TRPC4, TRPC5, and TRPC6 inhibition assay: HEK293 whole-cell recordings Whole-cell patch clamp recording was performed 16 h after transfection. The bath solution contained (in mM): 140 NaCl, 5 KCl, 10 HEPES, 2 MgCl2, 2 CaCl2, 10 glucose with pH7.4 adjusted with NaOH. The intracellular solution contained (in mM): 140 KCl, 5 EGTA, 10 HEPES, 2 MgCl2 with pH7.4 adjusted with KOH. The patch pipettes were made using a two-step-protocol (P-97, Sutter Instrument). The pipette resistance was maintained between 4 to 8 MΩ. Once the whole-cell configuration was achieved, cells were clamped at a holding potential of −60 mV, and given a 50 ms ramp stimulation from −100 mV to +100 mV in every 5 s. All currents were filtered at 2 KHz (Axopatch 200B amplifier, Axon Instruments, Union City, Calif.) and digitized at 10 KHz for whole-cell recordings using Axon pCLAMP 10.4. Data were then analyzed using Clampfit 10.4 (Molecular Devices).
HEK293 cell culture and transfection: Transfection of HEK293 cells was carried out using Plus reagent (Invitrogen) and Lipofectamine (Invitrogen) according to standard protocols. For heterologous expression of TRP channels in HEK293 cells, 1 μg of TRPC5-GFP, TRPC6-GFP or TRPC4-GFP plasmids were used to transfect HEK293 cells in a 3.5 cm petri dish where cells were allowed to grow to 80% confluence. Electrophysiology was carried out after 16 h incubation.

Compound: c1ccc(Cn2c(NCc3ccco3)nc3ccccc32)cc1 [AC1903]
- block of OAG-induced TRPC6 current: failed to block
